The test system of one test is NCI-H69. In words: Small-cell-lung cancer cell proliferation inhibition assay (PrestoBlue), NCI-H69. The class given is cell-based. To be noted: Homo sapiens, MYCN amplified SCLC cells, 72 hours. On the procedure:
(§1) Small cell lung cancer cells NCI-H82 (ATCC HTB-175, cMYC amplified), NCI-H446 (ATCC® HTB-171, cMYC amplified), and NCI-H69 (ATCC® HTB-119, MYCN amplified) were seeded at the density of 5000-10000 cells per well in 96-well plates. After 24 hours, the cancer cells were treated with each compound at various concentrations (0-10 μM) and then incubated for another 72 hours. IC50 values were computed based on duplicated 8-point titration.

In a further test the test system is NCI-H446. In words: Small-cell-lung cancer cell proliferation inhibition assay (PrestoBlue), NCI-H446. It counts as cell-based. The following applies: Homo sapiens, cMYC amplified SCLC cells, 72 hours. On the procedure:
as §1

For a further test, the system named is NCI-H82. In words: Small-cell-lung cancer cell proliferation inhibition assay (PrestoBlue), NCI-H82. It counts as cell-based. To be noted: Homo sapiens, cMYC amplified SCLC cells, 72 hours. The procedure:
as §1

Test [1] has as its target T1, human Aurora A (amino acids 123-401) (Homo sapiens, UniProt O14965).
T1 construct: human Aurora A (amino acids 123-401) was expressed in Sf9 insect cells; GST; made in house; host or cells: Sf9 insect cells
T1 sequence (O14965 123-401): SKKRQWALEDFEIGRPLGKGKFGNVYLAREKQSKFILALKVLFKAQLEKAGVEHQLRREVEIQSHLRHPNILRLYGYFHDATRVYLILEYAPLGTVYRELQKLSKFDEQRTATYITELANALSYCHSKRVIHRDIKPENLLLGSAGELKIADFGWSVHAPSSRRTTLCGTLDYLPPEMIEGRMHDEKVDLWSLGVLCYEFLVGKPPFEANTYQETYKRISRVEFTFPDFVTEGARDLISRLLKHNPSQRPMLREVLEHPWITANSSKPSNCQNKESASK
In words: Kinase-Glo Luminescent Kinase assay, in vitro inhibition of Aurora A kinase activity. To be noted: recombinant GST-tagged Aurora A, 5.0 μM ATP, 37° C., 120 minutes. The class given is biochemical. On the procedure:
Recombinant glutathione S-transferase (GST)-tagged N-terminal truncated human Aurora A (amino acids 123-401) was expressed in Sf9 insect cells and then purified by glutathione affinity chromatography to afford recombinant Aurora A. Recombinant Aurora A (150 ng) was reacted with each test compound (100 nM) in 50 μL of 50 mM Tris-HCl pH 7.4, 10 mM NaCl, 10 mM MgCl2, 0.01% bovine serum albumin, 5.0 μM ATP, 1 mM dithiothreitol, 15 μM tetra(-LRRASLG) peptide at 37° C. for 120 minutes. Then, to the reaction was added 50 μL of Kinase-Glo Plus Reagent. The resulting mixture was incubated at 25° C. for 20 minutes. A 70 μL aliquot of the mixture was transferred to a black microliter plate. Luminescence was measured using a Wallac Vector 1420 multilabel counter (PerkinElmer, USA).

In the case of `Cc1cc(Nc2cc(N3C[C@H](C)NC[C@H]3C)nc(N[C@H]3CCN(C(=O)c4ccc(Cl)cc4F)C3)n2)n[nH]1` [Compound 9], the IC50 with NCI-H69, in the test with NCI-H446 and in the test with NCI-H82 was less than 1000 nM each time.

As to `Cc1cc(Nc2cc(N3C[C@@H](C)N[C@@H](C)C3)nc(N[C@H]3CCN(C(=O)c4ccc(Cl)cc4F)C3)n2)n[nH]1` [Compound 10], the IC50 with NCI-H69, with NCI-H446 and in the test on NCI-H82 was less than 1000 nM each time.

Regarding `COCCN1CCN(c2cc(Nc3cc(C)[nH]n3)nc(N[C@H]3CCN(C(=O)c4ccc(Cl)cc4F)C3)n2)CC1` [Compound 13], the results for the IC50 (in test [1]; in the test on NCI-H69; with NCI-H82) were less than 100 nM, less than 1000 nM and less than 1000 nM, respectively.

In the case of `Cc1cc(Nc2cc(N3CCN(CC(F)(F)F)CC3)nc(N[C@H]3CCN(C(=O)c4ccc(Cl)cc4F)C3)n2)n[nH]1` [Compound 14], the IC50 in test [1] is less than 100 nM; in the test with NCI-H69, less than 1000 nM; with NCI-H446 it was less than 1000 nM; in the test with NCI-H82, less than 1000 nM.

Regarding `Cc1cc(Nc2cc(N3C[C@@H](C)N(C)[C@@H](C)C3)nc(N[C@H]3CCN(C(=O)c4ccc(Cl)cc4F)C3)n2)n[nH]1` [Compound 15], the IC50 in test [1] is less than 100 nM; in the test with NCI-H69, less than 1000 nM; in the test with NCI-H446 it was less than 1000 nM; in the test on NCI-H82, less than 1000 nM.

For `Cc1cc(Nc2cc(N3CCN(C4COC4)CC3)nc(N[C@H]3CCN(C(=O)c4ccc(Cl)cc4F)C3)n2)n[nH]1` [Compound 16], the IC50 in test [1] was less than 100 nM; in the test on NCI-H69, less than 1000 nM; in the test with NCI-H446 it was less than 1000 nM; in the test on NCI-H82 it was less than 1000 nM.

On to `Cc1cc(Nc2cc(N3CCC(N(C)C)CC3)nc(N[C@H]3CCN(C(=O)c4cccc(Cl)c4F)C3)n2)n[nH]1` [Compound 21], for which the IC50 in test [1] was less than 100 nM; with NCI-H69, less than 1000 nM; with NCI-H446, less than 1000 nM; with NCI-H82 it was less than 1000 nM.

Take `CCC(=O)n1nc(Nc2cc(N3CCN(CC)CC3)nc(N[C@H]3CCN(C(=O)c4ccc(Cl)cc4F)C3)n2)cc1C` [Compound 72]: the IC50 in the test with NCI-H69, in the test with NCI-H446 and with NCI-H82 was less than 1000 nM each time.

Consider `CCN1CCN(c2cc(Nc3cc(C)nn3C(=O)C(C)(C)C)nc(N[C@H]3CCN(C(=O)c4ccc(Cl)cc4F)C3)n2)CC1` [Compound 73], for which the concentration for half-maximal inhibition (IC50) with NCI-H69, with NCI-H446 and in the test with NCI-H82 was less than 1000 nM each time.

Take `CCN1CCN(c2cc(Nc3cc(C)n(C(=O)C(C)(C)C)n3)nc(N[C@H]3CCN(C(=O)c4ccc(Cl)cc4F)C3)n2)CC1` [Compound 74]: the IC50 in the test with NCI-H69, with NCI-H446 and with NCI-H82 was less than 1000 nM in each case.

In the case of `CCN1CCN(c2cc(Nc3cc(C)n(COC(=O)C(C)(C)C)n3)nc(N[C@H]3CCN(C(=O)c4ccc(Cl)cc4F)C3)n2)CC1` [Compound 75], the IC50 with NCI-H69, in the test on NCI-H446 and with NCI-H82 was less than 1000 nM throughout.

Take `CCN1CCN(c2cc(Nc3cc(C)nn3C(=O)OCC(C)C)nc(N[C@H]3CCN(C(=O)c4ccc(Cl)cc4F)C3)n2)CC1` [Compound 78]: the IC50 in the test on NCI-H69, in the test on NCI-H446 and in the test with NCI-H82 was less than 1000 nM in each case.

As to `CCN1CCN(c2cc(Nc3cc(C)n(C(=O)OCC(C)C)n3)nc(N[C@H]3CCN(C(=O)c4ccc(Cl)cc4F)C3)n2)CC1` [Compound 79], the IC50 in the test with NCI-H69, in the test with NCI-H446 and in the test with NCI-H82 was less than 1000 nM throughout.

With `CCN1CCN(c2cc(Nc3cc(C)nn3C(=O)OC(C)(C)C)nc(N[C@H]3CCN(C(=O)c4ccc(Cl)cc4F)C3)n2)CC1` [Compound 80], the IC50 in the test on NCI-H69, with NCI-H446 and in the test on NCI-H82 was less than 1000 nM each time.

`CCN1CCN(c2cc(Nc3cc(C)n(C(=O)OC(C)(C)C)n3)nc(N[C@H]3CCN(C(=O)c4ccc(Cl)cc4F)C3)n2)CC1` [Compound 81]: the IC50 in the test on NCI-H69, in the test with NCI-H446 and with NCI-H82 was less than 1000 nM in each case.

Consider `CCN1CCN(c2cc(Nc3cc(C)nn3C(=O)OCCOC)nc(N[C@H]3CCN(C(=O)c4ccc(Cl)cc4F)C3)n2)CC1` [Compound 82], for which the IC50 in the test with NCI-H69, in the test with NCI-H446 and in the test on NCI-H82 was less than 1000 nM in each case.

Turning to `CCN1CCN(c2cc(Nc3cc(C)n(C(=O)OCCOC)n3)nc(N[C@H]3CCN(C(=O)c4ccc(Cl)cc4F)C3)n2)CC1` [Compound 83], the IC50 with NCI-H69, in the test on NCI-H446 and in the test with NCI-H82 was less than 1000 nM each time.

For `Cc1cc(Nc2cc(N3CCN(C)CC3)nc(NC3CCN(C(=O)c4cccc(Cl)c4F)CC3)n2)n[nH]1` [Compound 90], the IC50 is less than 100 nM in test [1], less than 1000 nM with NCI-H69, less than 1000 nM in the test on NCI-H446 and less than 1000 nM in the test on NCI-H82.

On to `Cc1cc(Nc2cc(N3CCC(N(C)C)CC3)nc(NC3CCN(C(=O)c4cccc(Cl)c4F)CC3)n2)n[nH]1` [Compound 92], for which the IC50 was less than 100 nM in test [1], less than 1000 nM with NCI-H69, less than 1000 nM with NCI-H446 and less than 1000 nM with NCI-H82.

Consider `CC(=O)N1CCN(c2cc(Nc3cc(C)[nH]n3)nc(NC3CCN(C(=O)c4cccc(Cl)c4F)CC3)n2)CC1` [Compound 93], for which the IC50 in test [1] was less than 100 nM; in the test on NCI-H69, less than 1000 nM; in the test with NCI-H446, less than 1000 nM; in the test on NCI-H82, less than 1000 nM.

On to `Cc1cc(Nc2cc(N3CC[C@@H](N(C)C)C3)nc(NC3CCN(C(=O)c4cccc(Cl)c4F)CC3)n2)n[nH]1` [Compound 94], for which the IC50 in test [1] is less than 100 nM; with NCI-H69 it was less than 1000 nM; in the test on NCI-H446, less than 1000 nM; in the test with NCI-H82 it was less than 1000 nM.

For `Cc1cc(Nc2cc(N3CC[C@H](N(C)C)C3)nc(NC3CCN(C(=O)c4cccc(Cl)c4F)CC3)n2)n[nH]1` [Compound 96], the IC50 in test [1] is less than 100 nM; in the test on NCI-H69, less than 1000 nM; with NCI-H446, less than 1000 nM; with NCI-H82, less than 1000 nM.

In the case of `COC[C@H]1CCCN1c1cc(Nc2cc(C)[nH]n2)nc(NC2CCN(C(=O)c3cccc(Cl)c3F)CC2)n1` [Compound 97], the IC50 was less than 100 nM in test [1], less than 1000 nM in the test with NCI-H69, less than 1000 nM in the test with NCI-H446 and less than 1000 nM in the test with NCI-H82.

Take `COC1CN(c2cc(Nc3cc(C)[nH]n3)nc(NC3CCN(C(=O)c4cccc(Cl)c4F)CC3)n2)C1` [Compound 99]: the figures for the IC50 (in test [1]; in the test with NCI-H69; in the test on NCI-H446) were less than 100 nM, less than 1000 nM and less than 1000 nM, respectively.

On to `Cc1cc(Nc2cc(N3C[C@@H](C)N(C)[C@@H](C)C3)nc(NC3CCN(C(=O)c4cccc(Cl)c4F)CC3)n2)n[nH]1` [Compound 100], for which the IC50 in test [1] was less than 100 nM; with NCI-H69, less than 1000 nM; with NCI-H446, less than 1000 nM; with NCI-H82 it was less than 1000 nM.

Take `COCCN1CCN(c2cc(Nc3cc(C)[nH]n3)nc(NC3CCN(C(=O)c4cccc(Cl)c4F)CC3)n2)CC1` [Compound 101]: the values for the IC50 (in test [1]; in the test on NCI-H69; with NCI-H446) were less than 100 nM, less than 1000 nM and less than 1000 nM, respectively.

As for `Cc1cc(Nc2cc(N3C[C@@H](C)N[C@@H](C)C3)nc(NC3CCN(C(=O)c4cccc(Cl)c4F)CC3)n2)n[nH]1` [Compound 102], the IC50 in test [1] was less than 100 nM; in the test on NCI-H69, less than 1000 nM; with NCI-H446 it was less than 1000 nM; in the test on NCI-H82, less than 1000 nM.

Turning to `Cc1cc(Nc2cc(N3CCN(C4COC4)CC3)nc(NC3CCN(C(=O)c4cccc(Cl)c4F)CC3)n2)n[nH]1` [Compound 103], the IC50 in test [1] is less than 100 nM; in the test with NCI-H69, less than 1000 nM; in the test with NCI-H446, less than 1000 nM; in the test on NCI-H82, less than 1000 nM.

Consider `COC[C@@H]1CCCN1c1cc(Nc2cc(C)[nH]n2)nc(NC2CCN(C(=O)c3cccc(Cl)c3F)CC2)n1` [Compound 104], for which the IC50 in test [1] is less than 100 nM; in the test on NCI-H69, less than 1000 nM; with NCI-H82, less than 1000 nM.

Regarding `COC1CCN(c2cc(Nc3cc(C)[nH]n3)nc(NC3CCN(C(=O)c4cccc(Cl)c4F)CC3)n2)CC1` [Compound 105], the IC50 in the test on NCI-H69, in the test with NCI-H446 and with NCI-H82 was less than 1000 nM throughout.

On to `Cc1cc(Nc2cc(N3CCN(CC(F)(F)F)CC3)nc(NC3CCN(C(=O)c4cccc(Cl)c4F)CC3)n2)n[nH]1` [Compound 106], for which the IC50 was less than 100 nM in test [1], less than 1000 nM with NCI-H69, less than 1000 nM in the test on NCI-H446 and less than 1000 nM in the test on NCI-H82.

For `CCOC(=O)n1nc(C)cc1Nc1cc(N2CCN(CC)CC2)nc(NC2CCN(C(=O)c3cccc(Cl)c3F)CC2)n1` [Compound 127], the IC50 in the test with NCI-H69, in the test on NCI-H446 and in the test with NCI-H82 was less than 1000 nM throughout.

(Values after patent US12679827B2, “Pyrimidine compounds and their pharmaceutical uses” (National Health Research Institutes, priority 2020, dated 2026).)
